Measured values taken from patent US20200024278A1, “COMPOSITION COMPRISING ANTIBIOTIC COMPOUND AND AN HETEROCYCLIC COMPOUND AND THEIR USE IN PREVENTING OR TREATING BACTERIAL INFECTIONS” (MUTABILIS, priority 2016, published 2020).

How the values were obtained:
Experiment in all cases: MIC, broth microdilution (CLSI), substance alone or ATB combined with compound at 4 or 8 μg/mL
[1] = system: ECO 190317; type: cell-based, E. coli
Summary of the method: (§1)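 Potentiation format: antibiotic dilution series run with test compound held at 4 or 8 μg/mL, alongside compound-alone MICs. Broth microdilution per CLSI in ca-MHB, 16-20 h at 35° C.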

[2] = system: ECO UFR39; type: cell-based, E. coli; settings: for MIC ATB combined with Example compound: compound @8 μg/ml, ECO UFR39
Summary of the method: as §1

[3] = system: KPN 6299; type: cell-based, K. pneumoniae; settings: MIC of CIP, compound @8 μg/ml
Experimental: (§2) Compounds of the present invention were assessed against genotyped bacterial strains alone or in combination with an antibacterial. In the assays, MICs of said compounds or combination of antibiotics with fixed concentrations of said compounds (4 or 8 μg/mL) were determined by the broth microdilution method according to the Clinical Laboratory Standards Institute (CLSI-M7-A7). Briefly, compounds alone according to the invention were prepared in DMSO and spotted (2 μL each) on sterile polystyrene plates (Corning, 3788). Combinations of compounds and antibiotics dilutions were prepared in DMSO and spotted (1 μL each) on sterile polystyrene plates (Corning, 3788). Log phase bacterial suspensions were adjusted to a final density of 5·10^5 CFU/mL in cation-adjusted Mueller-Hinton broth (ca-MHB; Becton-Dickinson and Company) and added to each well (98 μL). Assays including Fosfomycin were supplemented with 25 μg/ml of Glucose-6-phosphate. Microplates were incubated for 16-20 h at 35° C. in ambient air. The MIC of the compounds was defined as the lowest concentration of said compounds that prevented bacterial growth as read by visual inspection. The MIC of ATB at each compound concentration was defined as the lowest concentration of ATB that prevented bacterial growth as read by visual inspection.

[4] = system: KPN BAA-1898; type: cell-based, K. pneumoniae
Experimental: as §2

[5] = system: KPN UFR42; type: cell-based, K. pneumoniae; settings: for MIC ATB combined with Example compound: compound @8 μg/ml, KPN UFR42
Experimental: as §2

[6] = system: ECL P99; type: cell-based, E. cloacae
Experimental: as §2

[7] = system: PAE 105250; type: cell-based, P. aeruginosa; settings: for MIC ATB combined with compound / MIC ATB combined with Example compound: compound @8 μg/ml, PAE 105250
Summary of the method: as §1

[8] = system: PAE UFR48; type: cell-based, P. aeruginosa; settings: for MIC ATB combined with compound / MIC ATB combined with Example compound: compound @8 μg/ml, PAE UFR48
Summary of the method: as §1

[9] = system: PAE UFR90; type: cell-based, P. aeruginosa; settings: for MIC ATB combined with compound / MIC ATB combined with Example compound: compound @8 μg/ml, PAE UFR90
Summary of the method: as §1

[10] = system: SAU 29213; type: cell-based, S. aureus; settings: for MIC ATB combined with compound / MIC ATB combined with Example compound: compound @8 μg/ml, SAU 29213
Summary of the method: as §1

[11] = system: SPN 49619; type: cell-based, S. pneumoniae; settings: for MIC ATB combined with compound / MIC ATB combined with Example compound: compound @8 μg/ml, SPN 49619
Summary of the method: as §1

O=C1N2CC(c3ncco3)=CC(C2)N1OC(F)(F)C(=O)O (stereo not shown) [Example 7]
2 µg/mL: MIC ATB combined with compound ([9]; ATB MEM)
32 µg/mL: MIC ATB combined with compound ([8]; ATB FEP) | MIC ATB combined with compound ([8]; ATB FOS) | MIC ([10]; Staphylococcus aureus, MSSA)
0.0078 µg/mL: MIC ATB combined with Example compound ([10]; MIC of RIF) | MIC ATB combined with Example compound ([11]; MIC of RIF)
16 µg/mL: MIC ([5]; Klebsiella pneumoniae) | MIC ATB combined with Example compound ([7]; MIC of CPO) | MIC ATB combined with compound ([9]; ATB ATM) | MIC ATB combined with Example compound ([9]; MIC of CPO) | MIC ([11]; Streptococcus pneumoniae)
> 32 µg/mL: MIC ([7]; Pseudomonas aeruginosa) | MIC ([8]; Pseudomonas aeruginosa) | MIC ([9]; Pseudomonas aeruginosa)
0.25 µg/mL: MIC ATB combined with Example compound ([10]; MIC of CIP) | MIC ATB combined with Example compound ([10]; MIC of CPO) | MIC ATB combined with Example compound ([10]; MIC of ERY) | MIC ATB combined with Example compound ([10]; MIC of SYN)
4 µg/mL: MIC ([1]; Escherichia coli) | MIC ATB combined with compound ([7]; ATB MEM) | MIC ATB combined with compound ([8]; ATB MEM) | MIC ATB combined with Example compound ([8]; MIC of CIP) | MIC ATB combined with compound ([9]; ATB FEP)
>128 µg/mL: MIC ATB combined with compound ([7]; ATB FOS)
1 µg/mL: MIC ATB combined with Example compound ([4]; MIC of CIP, compound @8 μg/ml, KPN BAA-1898) | MIC ATB combined with Example compound ([9]; MIC of CIP) | MIC ATB combined with compound ([10]; ATB FEP) | MIC ATB combined with compound ([10]; ATB PIP) | MIC ATB combined with Example compound ([10]; MIC of DAP) | MIC ATB combined with Example compound ([10]; MIC of LZD) | MIC ATB combined with Example compound ([10]; MIC of VAN) | MIC ATB combined with Example compound ([11]; MIC of LZD)
>32 µg/mL: MIC ATB combined with Example compound ([5]; MIC of CIP) | MIC ATB combined with compound ([7]; ATB PIP) | MIC ATB combined with compound ([8]; ATB ATM) | MIC ATB combined with compound ([8]; ATB PIP) | MIC ATB combined with Example compound ([8]; MIC of CPO) | MIC ATB combined with compound ([9]; ATB PIP) | MIC ATB combined with compound ([10]; ATB ATM) | MIC ATB combined with compound ([11]; ATB ATM)
<0.031 µg/mL: MIC ATB combined with Example compound ([1]; MIC of CIP, compound @8 μg/ml, ECO 190317) | MIC ATB combined with Example compound ([2]; MIC of CIP) | MIC ATB combined with Example compound ([2]; MIC of CPO) | MIC ATB combined with Example compound ([6]; MIC of CIP, compound @8 μg/ml, ECL P99)
0.125 µg/mL: MIC ATB combined with Example compound ([7]; MIC of CIP) | MIC ATB combined with Example compound ([11]; MIC of CLI) | MIC ATB combined with Example compound ([11]; MIC of DAP) | MIC ATB combined with Example compound ([11]; MIC of ERY) | MIC ATB combined with Example compound ([11]; MIC of VAN)
0.5 µg/mL: MIC ATB combined with compound ([10]; ATB FOS) | MIC ATB combined with compound ([11]; ATB PIP) | MIC ATB combined with Example compound ([11]; MIC of CIP) | MIC ATB combined with Example compound ([11]; MIC of SYN)
0.031 µg/mL: MIC ATB combined with Example compound ([10]; MIC of CLI)
8 µg/mL: MIC ([2]; Escherichia coli) | MIC ATB combined with Example compound [3] | MIC ([4]; Klebsiella pneumoniae, BAA1898) | MIC ([6]; Enterobacter cloacae) | MIC ATB combined with compound ([7]; ATB ATM) | MIC ATB combined with compound ([7]; ATB FEP) | MIC ATB combined with compound ([9]; ATB FOS) | MIC ATB combined with compound ([11]; ATB FOS)
<=0.031 μg/mL: MIC ATB combined with Example compound ([5]; MIC of CPO) | MIC ATB combined with compound ([10]; ATB MEM) | MIC ATB combined with compound ([11]; ATB FEP) | MIC ATB combined with compound ([11]; ATB MEM) | MIC ATB combined with Example compound ([11]; MIC of CPO)
